Tested on: glaucoma mice (high intraocular pressure, C57BL/6J)
Test: Glaucoma mouse model induced by intraocular injection of polystyrene microparticles (RGC and axon damage)
Format: in vivo, C57BL/6J mice
Conditions: 2 μl once a week at 0.2 μg/ml intravitreal; observed after 8 weeks; compared to IgG injected mice / controls
Protocol: Glaucoma mouse model. Two glaucoma mice models were used in the following experiments. In the first model, high intraocular pressure was induced in adult C57BL/6J mice by injecting polystyrene microparticles. First, mice were anesthetized by intraperitoneal injection of a mixture of ketamine (120 mg/kg) and xylazine (12 mg/kg). Then, a small puncture in the center of the right cornea of the mouse was incised with a 30 G needle (BD, USA). Then, 3 to […] of polystyrene particles of 15 μm diameter (Invitrogen, Oregon, USA) were injected at a 5×10^6/ml concentration into the right anterior chamber of the eye by a glass micro-injector. Left eyes were used as controls, by injecting […] of PBS into the left anterior chamber in a similar manner
Treatment with immune checkpoint inhibitors. […]
Pathologic assessments. After mice were sacrificed, optic nerve and retinal patches were taken to assess optic nerve damage. The optic nerve was fixed overnight with Karnovsky solution. Transverse sections of the optic nerve were obtained 2 mm after the eyeball and observed by electron microscopy (EM410, Philips). For retinal patches the eyeball was fixed with 4% paraformaldehyde overnight. Retinal patches and frozen sections were taken. Retinal ganglion cells (RGCs) were labeled with beta 3 tubulin (Invitrogen) and recorded using a confocal laser microscope (Olympus FV1000). […]

Q: For `Nc1ncnc2c1ncn2[C@@H]1O[C@H](CO)[C@@H](O)[C@H]1O` [adenosine], which “RGCs loss (beta 3 tubulin staining)” value is on record?
A: The value was “decreased RGCs loss”.

From patent US20220002411A1, “METHODS FOR TREATING IMMUNE RELATED OCULAR DISORDERS” (LEGEND MEDICAL-RIMONCI VISION TECHNOLOGY INCUBATION LIMITED, priority 2019, published 2022)
